The source of these data is PMC9500072, “Topical application of an irreversible small molecule inhibitor of lysyl oxidases ameliorates skin scarring and fibrosis” (Nature Communications, 2022).

The target in this assay is Dog Aorta LOX (Canis lupus familiaris, UniProt A0A8I3N9H6). Format: biochemical. How it is done:
The measurement of the enzymatic activity of all lysyl oxidase family members was based on the detection of hydrogen peroxide with an Amplex-Red oxidation assay, as previously described; miniaturized in 384 well formats, with the appropriate combination of substrate and assay buffer for each individual enzyme. After a 30 min pre-incubation of the enzyme at 37 °C with the test compound (or with different incubation times for the time-dependency assay), one volume of reaction mixture containing 120 μM Amplex Red (AR) (Life Technologies), 1.5 U/mL horseradish peroxidase (HRP) (Sigma-Aldrich) and the specific substrate was added to each sample. The relative fluorescence units (RFU) were then measured every 2.5 min for 30 min at 37 °C, excitation 565 nm and emission 590, on a BMG Clariostar Microplate Reader. All the substrates were used at concentrations corresponding to their Km towards the corresponding enzyme, or with a range of different concentrations for the substrate competition experiments.
Lysyl oxidases assay buffer contained 1.2 M urea, 50 mM sodium borate buffer, pH 8.2 and 100 µM β-aminoproprionitrile (BAPN, Sigma-Aldrich) was used for low control. […]

pIC50: −log10 of the molar value.

Sequence of Dog Aorta LOX (A0A8I3N9H6 entry or part of it): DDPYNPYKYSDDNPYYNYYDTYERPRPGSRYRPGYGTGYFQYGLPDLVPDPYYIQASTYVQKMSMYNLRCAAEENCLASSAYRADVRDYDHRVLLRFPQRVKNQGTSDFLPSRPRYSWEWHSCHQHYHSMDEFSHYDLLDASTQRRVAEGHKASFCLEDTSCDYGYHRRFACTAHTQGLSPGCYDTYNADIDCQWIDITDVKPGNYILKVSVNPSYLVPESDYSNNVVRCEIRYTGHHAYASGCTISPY

By pIC50 is commonly meant the IC50 on a negative log10 scale, so that one unit is a factor of ten. In the case of `N#CCCN` [BAPN, β-aminoproprionitrile, reference compound], the “Dog Aorta LOX pIC50±SD” value was determined as 5.7 ± 0.1 and the negative-log IC50 (pIC50) was 5.67.
